Results on six molecules are retold here after patent US20250304893A1, “PERFUSABLE 3D TUBULE-ON-CHIP MODEL DERIVED FROM KIDNEY ORGANOIDS WITH IMPROVED DRUG UPTAKE” (President and Fellows of Harvard College, priority 2022, published 2025).

Bounds are passed on as bounds.

The test system of data set [1] is OPTEC tubules. As to the kind of experiment: Diffusional permeability measurement of FITC-inulin through tubules on chip. It is filed as cell-based, human. Conditions: 4.5 kDa FITC-inulin 100 μg/mL perfused through lumen, OPTEC tubules vs PTEC-TERT1 tubules (control). As to the method:
The barrier function of the 3D OPTECs- and PTEC-TERT1 s based models was assessed by measuring the diffusional permeability of 4.5 kDa inulin. This compound was selected because is neither up taken up nor secreted by PTECs in-vivo. FITC-labeled inulin (Sigma product F3272) was dissolved in prewarmed LPTEC media at a concentration of 100 μg/mL and perfused through the luminal channel at a rate of 20 μL/min for 3 min and 1.5 μL/min thereafter for 15 min. The diffusion of FITC-inulin was calculated by: […]
Where Pd is the diffusional permeability coefficient, I1 is the average intensity at the initial time point, I2 is the average intensity at time t, Ib is the background intensity taken before perfusion of FITC-inulin, and dis the diameter of the channel^13.

Data set [2] concerns UB cells. In words: FITC-inulin retention in perfused epithelialized UB channels on chip (barrier function). Conditions: perfused epithelialized UB channels vs empty channels, after 1 hour. It is filed as cell-based, human. As to the method: To fabricate this chip, first the various chip components were assembled (FIG. 17A) and ECM was added to an inner reservoir around a pin and crosslinked. The pin was then removed forming an open channel that can be seeded with cells (FIG. 17B). This design allowed for easy access to the ECM and medium bathing the ECM. After seeding, cells formed confluent monolayers along channel walls within 3-7 days (FIG. 16C,D,E). Perfused epithelialized channels retained FITC-inulin after 1 hour relative to empty channels, indicating barrier function (FIG. 16F,G).

Data set [3] deals with OPTECs. In words: 2D OPTEC culture with media supplements to minimize epithelial to mesenchymal transition. It is filed as cell-based, human. The protocol: Organoid-derived PTECs (OPTECs) were cultured in 24-well plates pretreated with 1:20 laminin-511 (Biolamina LN511) in DPBS with calcium and magnesium. For passages 0 and 1, the OPTECs were cultured in REGM media supplemented with 1% FBS. Upon reaching passage 2, the OPTECs were cultured using LPTEC media supplemented with 1% FBS and 10 μM SB431542 (ab120163). Each passage was performed when the cells reached ˜90% confluency by first washing the cells with DPBS without calcium and magnesium, treating with 0.05% trypsin/EDTA for 3-5 min (or until cells lifted off the plate), followed by quenching with culture medium, centrifuging at 240 ref for 4 min, resuspending in culture media, and seeding each laminin pre-treated well at a density of 70,000-100,000 cells/cm^2.
Next, the effects of two different media were tested: (1) modified DMEM F-12 medium described by previous work^14 (LPTEC) and (2) commercially available renal epithelial growth medium (REGM). […] To further promote cell attachment, growth, and proliferation, 1% FBS was added to the media. To minimize epithelial to mesenchymal transition (EMT), the effects of transforming growth factor (TGF-β), bone morphogenic protein 7 (BMP7) and TGF-β/activin/NODAL pathway (SB431542) inhibitors were explored (FIG. 6k-l)^26. […]

Data set [4] has as its system OPTEC tubules. The conditions noted are these: 48 h. As to the method:
Before beginning these experiments, three important steps were carried out: (1) all reservoirs were supplied with fresh media, (2) all outlet tubing was cut to the same length, and (3) all chips were subjected to one-way rather than recirculating back to the media reservoir. After each chip within the MCDs was subjected to one-way flow (2 μL/min) for 4 h, a baseline sample of the perfusate was collected from the luminal outlet tubing for 3 h into a 1.6 mL Eppendorf tube. Next, cisplatin (50 μM) or aristolochic acid (25 μM) was delivered basolaterally on chip by manually pipetting each drug solution to the appropriate basal media reservoir. Next, all tubing was reconnected to the peristaltic pump and allowed to flow at a flow rate of 2 μL/min. After 48 h, another sample of the perfusate was collected from the luminal outlet tubing for 3 h into a 1.6 mL Eppendorf tube. All collected luminal media samples were spun down at 5000 rcf for 5 min to remove cellular debris. Each supernatant was transferred to a fresh tube and stored at −20° C. to run the LDH assay. For samples pre-treated with inhibitors, cimetidine (1 mM) or probenecid (2 mM) was first added to the basal reservoir, delivered basolaterally, and allowed to diffuse through the gelatin-fibrin matrix during recirculating flow for 1 h.
LDH assays were performed according to the manufacturer's instructions (Promega, CytoTox Non-Radioactive Cytotoxicity Assay, G1780). The frozen media samples were thawed at room temperature and used after this first thaw cycle. Next, 50 μL of each media was transferred to a 96-well plate and incubated at 37° C. for 30 min with 50 μL of CytoTox 96 reagent. 50 μL of stop solution was then added, all bubbles were removed using a syringe, and their absorbance was recorded at 490 nm using a plate reader.
(§1) Normalized LDH release was calculated using the following equation: […]
LDH48 was the recorded absorbance of the 48-h perfusate sample and LDHbaseline was the recorded absorbance of baseline perfusate sample before drug exposure. Normalized LDH release was calculated for each of the tubules individually and plotted into sample groups comparing OPTEC-on-chip and PTEC-TERT1-on-chip models subjected to each drug ±inhibitor.
To assess nephrotoxicity, luminal perfusate was collected and LDH analyses were performed. LDH is a cytosolic enzyme found in nearly all cell types, including PTECs, that is released upon cellular damage^29. […] Due to differences in their baseline LDH release among different tubules across the two cell types, a normalized LDH release (LDH release at 48 h relative to baseline release) was determined for each sample, i.e., OPTEC and PTEC-TERT1 tubules without drug, with drug, and with drug and corresponding inhibitors for OCT2 and OAT1/3 transporters, respectively.

Data set [5] relates to PTEC-TERT1 tubules. In words: Nephrotoxicity testing: normalized LDH release in luminal perfusate of PTEC-TERT1-on-chip tubules (control chips). It is filed as cell-based, human. The protocol: Before beginning these experiments, three important steps were carried out: (1) all reservoirs were supplied with fresh media, (2) all outlet tubing was cut to the same length, and (3) all chips were subjected to one-way rather than recirculating back to the media reservoir. After each chip within the MCDs was subjected to one-way flow (2 μL/min) for 4 h, a baseline sample of the perfusate was collected from the luminal outlet tubing for 3 h into a 1.6 mL Eppendorf tube. Next, cisplatin (50 μM) or aristolochic acid (25 μM) was delivered basolaterally on chip by manually pipetting each drug solution to the appropriate basal media reservoir. […]
LDH assays were performed according to the manufacturer's instructions (Promega, CytoTox Non-Radioactive Cytotoxicity Assay, G1780). […] 50 μL of stop solution was then added, all bubbles were removed using a syringe, and their absorbance was recorded at 490 nm using a plate reader.
as §1
LDH48 was the recorded absorbance of the 48-h perfusate sample and LDHbaseline was the recorded absorbance of baseline perfusate sample before drug exposure. Normalized LDH release was calculated for each of the tubules individually and plotted into sample groups comparing OPTEC-on-chip and PTEC-TERT1-on-chip models subjected to each drug ±inhibitor. […]

Turning to FITC-inulin, the diffusional permeability entry in data set [1] is listed as “comparable to that observed for PTEC-TERT1 tubules”. Also, the “retention of FITC-inulin in channel (barrier function)” value in data set [2] is reported as “retained”.

Consider `NC(=O)c1ccc(-c2nc(-c3ccc4c(c3)OCO4)c(-c3ccccn3)[nH]2)cc1` [SB431542], for which the “cell morphology during prolonged cell culture” value in data set [3] (10 μM, OPTECs 2D culture) is reported as “cuboidal cell morphology”. Also, the “EMT marker expression in 2D OPTEC monolayers” value in data set [3] (SB431542 as media supplement, 2D culture) is “down regulation of EMT markers”.

On to `CCCN(CCC)S(=O)(=O)c1ccc(C(=O)O)cc1` [probenecid], for which the “normalized LDH release upon OAT1/3 inhibitor” value in data set [4] (probenecid 2 mM pre-treatment, 25 μM aristolochic acid, OPTEC tubules) is given as “substantially reduced”. For the same molecule, the “effect of OAT1/3 inhibition on normalized LDH release” value in data set [5] (probenecid 2 mM, same aristolochic acid dose (25 μM)) is listed as “negligible effect”.

As for `N.N.[Cl][Pt][Cl]` [cisplatin], in data set [4] (50 μM cisplatin delivered basolaterally, OPTEC tubules on chip), the “normalized LDH response compared to PTEC-TERT1 s” value is listed as “significantly higher”.

For `COc1cccc2c1cc([N+](=O)[O-])c1c(C(=O)O)cc3c(c12)OCO3` [aristolochic acid], the “LDH release compared to PTEC-TERT1 tubules” value in data set [4] (25 μM aristolochic acid delivered basolaterally, OPTEC tubules on chip) is listed as “significantly higher”.

For `CN/C(=N/CCSCc1nc[nH]c1C)NC#N` [cimetidine], the “decrease of normalized LDH release upon OCT2 inhibitor (factor)” value in data set [4] (cimetidine 1 mM pre-treatment, 50 μM cisplatin, OPTEC tubules) is listed as > 2. In data set [5] (cimetidine 1 mM, same cisplatin dose (50 μM)), the “effect of OCT2 inhibition on normalized LDH release” value is recorded as “far less effect”.
